In the CheMixHub viscosity set:
“And” between values parts separate entries of the source, which are not always exact repeats. Identical values can stand only once. ± gives the uncertainty stated by the source.

Assay: xn = mol fraction of the nth substance listed

COCCO + NCCO
viscosity [mPa·s], 101.3 kPa
Details | x2 = 0.122 | x2 = 0.348 | x2 = 0.916
298.15 K | 2.065 ± 0.086 | 3.765 ± 0.16 | –
308.15 K | – | – | 10.55 ± 0.44

C1CNCCN1 + O
Details | viscosity
293.15 K, 100 kPa, x1 = 0.02273 | 1.608 ± 0.053 mPa·s
298.15 K, 101 kPa, x1 = 0.0292 | 1.877 ± 0.044 mPa·s
303.15 K, 101 kPa, x1 = 0.00369 | 0.86 ± 0.04 mPa·s
303.15 K, 101 kPa, x1 = 0.005 | 0.84 ± 0.04 mPa·s
303.15 K, 101 kPa, x1 = 0.01 | 0.93 ± 0.04 mPa·s
303.15 K, 101 kPa, x1 = 0.0113 | 0.97 ± 0.05 mPa·s
303.15 K, 101 kPa, x1 = 0.02 | 1.13 ± 0.05 mPa·s
303.15 K, 101 kPa, x1 = 0.02358 | 1.28 ± 0.06 mPa·s
303.15 K, 101 kPa, x1 = 0.025 | 1.28 ± 0.05 mPa·s
303.15 K, 101 kPa, x1 = 0.03 | 1.41 ± 0.06 mPa·s
303.15 K, 101 kPa, x1 = 0.035 | 1.57 ± 0.07 mPa·s
303.15 K, 101 kPa, x1 = 0.04 | 1.76 ± 0.07 mPa·s
303.15 K, 101 kPa, x1 = 0.045 | 1.91 ± 0.08 mPa·s
313.15 K, 100 kPa, x1 = 0.02273 | 0.9677 ± 0.032 mPa·s and 0.988 ± 0.021 mPa·s
313.15 K, 101 kPa, x1 = 0.005 | 0.67 ± 0.03 mPa·s
313.15 K, 101 kPa, x1 = 0.01 | 0.74 ± 0.03 mPa·s
313.15 K, 101 kPa, x1 = 0.0113 | 0.76 ± 0.04 mPa·s
313.15 K, 101 kPa, x1 = 0.015 | 0.81 ± 0.03 mPa·s
313.15 K, 101 kPa, x1 = 0.02 | 0.89 ± 0.04 mPa·s
313.15 K, 101 kPa, x1 = 0.02358 | 1.02 ± 0.05 mPa·s
313.15 K, 101 kPa, x1 = 0.025 | 0.99 ± 0.04 mPa·s
313.15 K, 101 kPa, x1 = 0.0292 | 1.307 ± 0.032 mPa·s
313.15 K, 101 kPa, x1 = 0.03 | 1.08 ± 0.04 mPa·s
313.15 K, 101 kPa, x1 = 0.04 | 1.33 ± 0.05 mPa·s
313.15 K, 101 kPa, x1 = 0.045 | 1.43 ± 0.06 mPa·s
318.15 K, 101 kPa, x1 = 0.00369 | 0.61 ± 0.03 mPa·s
318.15 K, 101 kPa, x1 = 0.0113 | 0.69 ± 0.04 mPa·s
318.15 K, 101 kPa, x1 = 0.02358 | 0.92 ± 0.05 mPa·s
323.15 K, 101 kPa, x1 = 0.005 | 0.51 ± 0.02 mPa·s
323.15 K, 101 kPa, x1 = 0.01 | 0.59 ± 0.03 mPa·s
323.15 K, 101 kPa, x1 = 0.0113 | 0.62 ± 0.03 mPa·s
323.15 K, 101 kPa, x1 = 0.02 | 0.71 ± 0.03 mPa·s
323.15 K, 101 kPa, x1 = 0.02358 | 0.81 ± 0.04 mPa·s
323.15 K, 101 kPa, x1 = 0.025 | 0.8 ± 0.03 mPa·s
323.15 K, 101 kPa, x1 = 0.03 | 0.86 ± 0.04 mPa·s
323.15 K, 101 kPa, x1 = 0.035 | 0.95 ± 0.04 mPa·s
323.15 K, 101 kPa, x1 = 0.04 | 1.04 ± 0.04 mPa·s
323.15 K, 101 kPa, x1 = 0.045 | 1.11 ± 0.05 mPa·s

OCC(O)C(O)CO (configuration not stated) + O
viscosity [mPa·s], 101 kPa
Details | 293.15 K | 298.15 K | 303.15 K | 308.15 K | 313.15 K | 318.15 K | 323.15 K
x1 = 0.005 | 1.176 ± 0.011 | 1.05 ± 0.01 | 0.915 ± 0.009 | 0.79 ± 0.008 | – | 0.649 ± 0.006 | 0.62 ± 0.006
x1 = 0.01 | – | 1.152 ± 0.011 | 1.021 ± 0.01 | 0.912 ± 0.009 | 0.821 ± 0.008 | 0.744 ± 0.007 | 0.679 ± 0.007
x1 = 0.015 | 1.42 ± 0.013 | 1.25 ± 0.012 | 1.109 ± 0.01 | 0.968 ± 0.009 | 0.891 ± 0.009 | 0.808 ± 0.008 | 0.736 ± 0.007
x1 = 0.02 | 1.53 ± 0.014 | 1.327 ± 0.012 | 1.191 ± 0.011 | 1.053 ± 0.01 | 0.965 ± 0.009 | 0.86 ± 0.008 | 0.813 ± 0.008
